System: 616215-338-R-J1-PDC tumor spheroids, viability
Test: Anticancer human tumor 616215-338-R-J1-PDC patient-derived colon adenocarcinoma cell line growth inhibition [GQUAD]
Conditions: spheroids with HUVEC and MSC; for IC50: curve of first compound; for viability, T/C: stronger effect = lower value
In short: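 Multi-cell-type spheroids of tumor cells with HUVEC and mesenchymal stem cells, treated with drug combinations. Concentrations descend in half-log steps from near clinical Cmax, or from 10 microM where Cmax is unknown; viability read-out.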

[1] = second compound 0.0316 µM, first compound 0.0316 µM
[2] = second compound 0.0316 µM, first compound 0.1 µM
[3] = second compound 0.0316 µM, first compound 0.316 µM
[4] = second compound 0.0316 µM, first compound 1 µM
[5] = second compound 0.0316 µM, first compound 3.16 µM
[6] = second compound 0.0316 µM, first compound 10 µM
[7] = second compound 0.1 µM, first compound 0.0316 µM
[8] = second compound 0.1 µM, first compound 0.1 µM
[9] = second compound 0.1 µM, first compound 0.316 µM
[10] = second compound 0.1 µM, first compound 1 µM
[11] = second compound 0.1 µM, first compound 3.16 µM
[12] = second compound 0.1 µM, first compound 10 µM
[13] = second compound 0.316 µM, first compound 0.0316 µM
[14] = second compound 0.316 µM, first compound 0.1 µM
[15] = second compound 0.316 µM, first compound 0.316 µM
[16] = second compound 0.316 µM, first compound 1 µM
[17] = second compound 0.316 µM, first compound 3.16 µM
[18] = second compound 0.316 µM, first compound 10 µM
[19] = second compound 1 µM, first compound 0.0316 µM
[20] = second compound 1 µM, first compound 0.1 µM
[21] = second compound 1 µM, first compound 0.316 µM
[22] = second compound 1 µM, first compound 1 µM
[23] = second compound 1 µM, first compound 3.16 µM
[24] = second compound 1 µM, first compound 10 µM
[25] = second compound 3.16 µM, first compound 0.0316 µM
[26] = second compound 3.16 µM, first compound 0.1 µM
[27] = second compound 3.16 µM, first compound 0.316 µM
[28] = second compound 3.16 µM, first compound 1 µM
[29] = second compound 3.16 µM, first compound 3.16 µM
[30] = second compound 3.16 µM, first compound 10 µM
[31] = second compound 10 µM, first compound 0.0316 µM
[32] = second compound 10 µM, first compound 0.1 µM
[33] = second compound 10 µM, first compound 0.316 µM
[34] = second compound 10 µM, first compound 1 µM
[35] = second compound 10 µM, first compound 3.16 µM
[36] = second compound 10 µM, first compound 10 µM
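Note: spheroids exposed to agents for 7 days before readout.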
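Throughout, for viability, T/C: percent viability relative to DMSO vehicle control wells taken as 100%.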

## CC1COCCN1c1cc(C2(S(C)(=N)=O)CC2)nc(-c2ccnc3[nH]ccc23)n1 (centres undefined) + Cc1cnc(CNC(=O)c2c(=O)c3ccc(N4CCCN(C)CC4)nc3n3c2sc2ccccc23)cn1
Second compound 0.0316 µM
  IC50: 2380 nM
Second compound 0.1 µM
  IC50: 1070 nM
Second compound 0.316 µM
  IC50: 45.3 nM
Second compound 1 µM
  IC50: < 31.6 nM
Second compound 3.16 µM
  IC50: < 31.6 nM
Second compound 10 µM
  IC50: < 31.6 nM
[1]
  viability, T/C: 97.6%
[2]
  viability, T/C: 97.4%
[3]
  viability, T/C: 94.5%
[4]
  viability, T/C: 83.7%
[5]
  viability, T/C: 38.8%
[6]
  viability, T/C: 31.4%
[7]
  viability, T/C: 72.5%
[8]
  viability, T/C: 73.4%
[9]
  viability, T/C: 70%
[10]
  viability, T/C: 51.2%
[11]
  viability, T/C: 33.6%
[12]
  viability, T/C: 32.6%
[13]
  viability, T/C: 53.5%
[14]
  viability, T/C: 43.2%
[15]
  viability, T/C: 44.1%
[16]
  viability, T/C: 42.1%
[17]
  viability, T/C: 33.7%
[18]
  viability, T/C: 28.2%
[19]
  viability, T/C: 38.3%
[20]
  viability, T/C: 40.9%
[21]
  viability, T/C: 32%
[22]
  viability, T/C: 26.7%
[23]
  viability, T/C: 27.7%
[24]
  viability, T/C: 21.5%
[25]
  viability, T/C: 21.9%
[26]
  viability, T/C: 30.2%
[27]
  viability, T/C: 31.6%
[28]
  viability, T/C: 30.2%
[29]
  viability, T/C: 40.4%
[30]
  viability, T/C: 30%
[31]
  viability, T/C: 25.1%
[32]
  viability, T/C: 27.1%
[33]
  viability, T/C: 29.9%
[34]
  viability, T/C: 22.4%
[35]
  viability, T/C: 19.6%
[36]
  viability, T/C: 17.5%

## COc1cc(C2c3cc4c(cc3C(OC3OC5COC(C)OC5C(O)C3O)C3COC(=O)C23)OCO4)cc(OC)c1O (centres undefined) + Cc1cnc(CNC(=O)c2c(=O)c3ccc(N4CCCN(C)CC4)nc3n3c2sc2ccccc23)cn1
Second compound 0.0316 µM
  IC50: 481 nM
Second compound 0.1 µM
  IC50: 456 nM
Second compound 0.316 µM
  IC50: < 31.6 nM
Second compound 1 µM
  IC50: < 31.6 nM
Second compound 3.16 µM
  IC50: < 31.6 nM
Second compound 10 µM
  IC50: < 31.6 nM
[1]
  viability, T/C: 104%
[2]
  viability, T/C: 98.3%
[3]
  viability, T/C: 54.3%
[4]
  viability, T/C: 44.2%
[5]
  viability, T/C: 57.3%
[6]
  viability, T/C: 23.9%
[7]
  viability, T/C: 65.7%
[8]
  viability, T/C: 61%
[9]
  viability, T/C: 55.8%
[10]
  viability, T/C: 38.8%
[11]
  viability, T/C: 32.2%
[12]
  viability, T/C: 30.6%
[13]
  viability, T/C: 39.5%
[14]
  viability, T/C: 46.2%
[15]
  viability, T/C: 29.3%
[16]
  viability, T/C: 36.3%
[17]
  viability, T/C: 30.6%
[18]
  viability, T/C: 17.7%
[19]
  viability, T/C: 32.3%
[20]
  viability, T/C: 32.8%
[21]
  viability, T/C: 33.8%
[22]
  viability, T/C: 34.3%
[23]
  viability, T/C: 23.3%
[24]
  viability, T/C: 18.4%
[25]
  viability, T/C: 34.5%
[26]
  viability, T/C: 23.7%
[27]
  viability, T/C: 28.3%
[28]
  viability, T/C: 27%
[29]
  viability, T/C: 28.2%
[30]
  viability, T/C: 24.3%
[31]
  viability, T/C: 28.2%
[32]
  viability, T/C: 29.7%
[33]
  viability, T/C: 26.6%
[34]
  viability, T/C: 36.3%
[35]
  viability, T/C: 22.3%
[36]
  viability, T/C: 23.8%
